Test system: K562 CRISPRi cells
Experiment: Perturb-seq pooled growth measurement (sgRNA counts, growth phenotype γ, relative activity)
Type: cell-based, human
Conditions: sequencing read counts; for Perturb-seq pooled growth sgRNA counts, d5: 5 days of growth (day seven after transduction); for Perturb-seq pooled growth sgRNA counts, d10: 10 days of growth (day twelve after transduction); for Perturb-seq pooled growth sgRNA counts, T0: T0 = day two after transduction
Excerpt: Finally, we sought to use intermediate-activity sgRNAs to explore relationships between expression levels of various genes and the resulting cellular phenotypes. To simultaneously measure gene expression levels and obtain rich phenotypes for a variety of sgRNA series, we used Perturb-seq, an experimental strategy that enables matched capture of the transcriptome and the identity of an expressed sgRNA for each individual cell in pools of cells (27, 31-33) (FIG. 12A). […] In addition to the single-cell transcriptomes, we measured bulk growth phenotypes conferred by sgRNAs in these cells.
To measure the growth rate defects conferred by each sgRNA for comparison with the transcriptional phenotypes, samples of 500,000 transduced cells were taken from the same transduced cell population used in the Perturb-seq experiment on days two, seven, and twelve after transduction. Genomic DNA was extracted using the Nucleospin Blood kit (Macherey-Nagel) and sgRNA amplicons were prepared as described previously and above (19), albeit with no genomic DNA digestion or gel purification, and sequenced on HiSeq 4000 as described above for the other screens. Growth phenotypes were calculated by comparing normalized sgRNA abundances at day seven and twelve to those at day two, as described above. […] Relative sgRNA activities measured at day seven (five days of growth) were used to assign sgRNA activities in further analysis.

Row | Substance | Perturb-seq pooled growth sgRNA counts, d5 | Perturb-seq pooled growth sgRNA counts, d10 | Perturb-seq pooled growth sgRNA counts, T0
1 | ATP5E_−_57607036.23-P1P2_01: sgRNA targeting ATP5E, GGTGTCCTGGGGCACTCTGT, SEQ ID NO: 152 (listed as DNA, chemistry not fully specified) | 10487 | 8806 | 7774
2 | ATP5E_−_57607036.23-P1P2_04: sgRNA targeting ATP5E, GGTGTCCAGGAGCACTCTGT, SEQ ID NO: 154 (listed as DNA, chemistry not fully specified) | 13256 | 14860 | 7209
3 | ATP5E_−_57607036.23-P1P2_14: sgRNA targeting ATP5E, GGTGTCCAGGGGCACTGTGT, SEQ ID NO: 155 (listed as DNA, chemistry not fully specified) | 10750 | 15257 | 4611
4 | ATP5E_−_57607036.23-P1P2_16: sgRNA targeting ATP5E, GGTGTCCAGGGGCGCTCTGT, SEQ ID NO: 153 (listed as DNA, chemistry not fully specified) | 9571 | 9964 | 6210
5 | BCR_+_23523092.23-P1P2_00: sgRNA targeting BCR, GCGCGCGGGGCCCGTCTCAG, SEQ ID NO: 125 (listed as DNA, chemistry not fully specified) | 2250 | 2333 | 9644
6 | BCR_+_23523092.23-P1P2_04: sgRNA targeting BCR, GCGCGCGGAGCCCGTCTCAG, SEQ ID NO: 127 (listed as DNA, chemistry not fully specified) | 1660 | 2119 | 5355
7 | BCR_+_23523092.23-P1P2_05: sgRNA targeting BCR, GCGCGCGGCGCCCGTCTCAG, SEQ ID NO: 128 (listed as DNA, chemistry not fully specified) | 12165 | 15537 | 13439
8 | BCR_+_23523092.23-P1P2_07: sgRNA targeting BCR, GCGCGCGGGGCTCGTCTCAG, SEQ ID NO: 126 (listed as DNA, chemistry not fully specified) | 1744 | 2183 | 8081
9 | BCR_+_23523092.23-P1P2_13: sgRNA targeting BCR, GCGCGCGGGGCCCATCTCAG, SEQ ID NO: 130 (listed as DNA, chemistry not fully specified) | 5668 | 7063 | 4304
10 | BCR_+_23523092.23-P1P2_15: sgRNA targeting BCR, GCGCGCGGGGCCCGTCGCAG, SEQ ID NO: 129 (listed as DNA, chemistry not fully specified) | 6829 | 8085 | 5377
11 | CAD_+_27440280.23-P1P2_00: sgRNA targeting CAD, GGCTGGAGAGAAGCCGGGCG, SEQ ID NO: 20 (listed as DNA, chemistry not fully specified) | 2464 | 785 | 8671
12 | CAD_+_27440280.23-P1P2_03: sgRNA targeting CAD, GGCTGGTGAGAAGCCGGGCG, SEQ ID NO: 102 (listed as DNA, chemistry not fully specified) | 2087 | 907 | 7290
13 | CAD_+_27440280.23-P1P2_06: sgRNA targeting CAD, GGCTGGAGAGTAGCCGGGCG, SEQ ID NO: 104 (listed as DNA, chemistry not fully specified) | 4967 | 4365 | 6199
14 | CAD_+_27440280.23-P1P2_07: sgRNA targeting CAD, GGCTGGAGCGAAGCCGGGCG, SEQ ID NO: 103 (listed as DNA, chemistry not fully specified) | 6008 | 4019 | 13241
15 | CAD_+_27440280.23-P1P2_13: sgRNA targeting CAD, GGCTGGAGAGAAGCCTGGCG, SEQ ID NO: 105 (listed as DNA, chemistry not fully specified) | 17097 | 19130 | 11874
16 | CDC23_−_137548987.23-P1P2_00: sgRNA targeting CDC23, GACAGCCACCGGGACCATGG, SEQ ID NO: 18 (listed as DNA, chemistry not fully specified) | 757 | 854 | 8182
17 | CDC23_−_137548987.23-P1P2_02: sgRNA targeting CDC23, GACAGCTACCGGGACCATGG, SEQ ID NO: 98 (listed as DNA, chemistry not fully specified) | 832 | 1192 | 7014
18 | CDC23_−_137548987.23-P1P2_04: sgRNA targeting CDC23, GACAGCCAACGGGACCATGG, SEQ ID NO: 100 (listed as DNA, chemistry not fully specified) | 1646 | 1646 | 8019
19 | CDC23_−_137548987.23-P1P2_08: sgRNA targeting CDC23, GACAGCCATCGGGACCATGG, SEQ ID NO: 99 (listed as DNA, chemistry not fully specified) | 1531 | 1710 | 8986
20 | CDC23_−_137548987.23-P1P2_11: sgRNA targeting CDC23, GACAGCCACCGGGACCACGG, SEQ ID NO: 101 (listed as DNA, chemistry not fully specified) | 14320 | 16682 | 12707
21 | COX11_+_53045977.23-P1P2_00: sgRNA targeting COX11, GGCTCTGGCGTCCTGGATGG, SEQ ID NO: 141 (listed as DNA, chemistry not fully specified) | 11785 | 6198 | 8084
22 | COX11_+_53045977.23-P1P2_03: sgRNA targeting COX11, GGCTCTGTCGTCCTGGATGG, SEQ ID NO: 142 (listed as DNA, chemistry not fully specified) | 16852 | 9184 | 11251
23 | COX11_+_53045977.23-P1P2_04: sgRNA targeting COX11, GGCTCTGGCGCCCTGGATGG, SEQ ID NO: 143 (listed as DNA, chemistry not fully specified) | 8343 | 5047 | 5234
24 | COX11_+_53045977.23-P1P2_05: sgRNA targeting COX11, GGCTCTGGCGTCTTGGATGG, SEQ ID NO: 144 (listed as DNA, chemistry not fully specified) | 10766 | 11496 | 5205
25 | COX11_+_53045977.23-P1P2_10: sgRNA targeting COX11, GGCTCTGGCGTCCCGGATGG, SEQ ID NO: 145 (listed as DNA, chemistry not fully specified) | 8887 | 11271 | 5206
26 | DBR1_+_137893744.23-P1P2_00: sgRNA targeting DBR1, GTTTGCAGGAGTCTACACCC, SEQ ID NO: 78 (listed as DNA, chemistry not fully specified) | 9171 | 3583 | 13446
27 | DBR1_+_137893744.23-P1P2_01: sgRNA targeting DBR1, GATTGCAGGAGTCTACACCC, SEQ ID NO: 79 (listed as DNA, chemistry not fully specified) | 5512 | 1824 | 9446
28 | DBR1_+_137893744.23-P1P2_05: sgRNA targeting DBR1, GTTTGCAGGAGTGTACACCC, SEQ ID NO: 81 (listed as DNA, chemistry not fully specified) | 6705 | 4748 | 6569

— patent US20220259593A1, “CONTROL OF MAMMALIAN GENE DOSAGE USING CRISPR” (The Regents of the University of California, priority 2019, published 2022)
